Where a name gives a salt, the structure may show the parent alone.
target: T1, Farnesyltransferase (FTase) (Bos taurus, UniProt P29702+P49355); test: Farnesyltransferase inhibition (scintillation proximity assay, [3H]-FPP / biotin-K-ras peptide); assay type: biochemical, bovine; details: not given
T1 construct: precipitation from a beef brain homogenate; from tissue; host or cells: bovine brain
Outline: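 Bovine brain FTase, partially purified by 30–50% saturated ammonium sulfate precipitation and DEAE Sepharose chromatography, separated from GGTase I/II. Scintillation proximity read-out of [3H]-FPP transfer to biotin-K-ras peptide, counted 1 h after quench. Compounds added from ethanol with 10-fold dilution into assay.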

T1 sequence (P49355 whole entry, one chain of several): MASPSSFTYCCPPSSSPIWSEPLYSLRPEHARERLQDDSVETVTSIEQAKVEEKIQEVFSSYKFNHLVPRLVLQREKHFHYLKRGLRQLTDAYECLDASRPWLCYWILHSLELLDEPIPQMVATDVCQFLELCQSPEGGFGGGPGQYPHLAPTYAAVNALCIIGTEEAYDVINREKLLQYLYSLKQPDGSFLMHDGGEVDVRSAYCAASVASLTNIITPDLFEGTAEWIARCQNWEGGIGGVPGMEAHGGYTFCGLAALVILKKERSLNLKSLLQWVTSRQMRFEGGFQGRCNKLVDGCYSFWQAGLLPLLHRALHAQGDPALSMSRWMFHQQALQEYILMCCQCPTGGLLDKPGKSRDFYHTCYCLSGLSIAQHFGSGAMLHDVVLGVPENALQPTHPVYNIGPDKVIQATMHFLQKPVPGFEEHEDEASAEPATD

Row | Compound | % Inhibition at 10^−6M [%]
1 | Cc1ccccc1-c1cc(C(OCc2ccc([N+](=O)[O-])cc2)c2cncn2C)ccc1C#N.Cl (centres unmarked) [Example 121] | 96
2 | Cc1ccccc1-c1cc(C(OCc2noc(-c3cccc(C(F)(F)F)c3)n2)c2cncn2C)ccc1C#N.Cl (centres unmarked) [Example 169, 2′-methyl-5-((1,1-methyl-1H-imidazol-5-yl)((5-(3-(trifluoromethyl)phenyl)-1,2,4-oxadiazol-3-yl)methoxy)methyl)(1,1′-biphenyl)-2-carbonitrile hydrochloride] | 70
3 | Cc1ccccc1-c1cc(C(OCc2c(C)c(C)cc(C)c2C)c2cncn2C)ccc1C#N.Cl (centres unmarked) [Example 179] | 93

same assay, conditions: compound at 10^−6 M; bovine FTase, 37° C., 30 minutes

Row | inhibition at 1 µM [%] | Compound | % Inhibition at 10^−6M [%]
4 | 99 | Cn1cncc1C(OCc1ccc(C#N)cn1)c1ccc(C#N)c(-c2ccccc2C(F)(F)F)c1 (centres unmarked) [Example 251, 6-(((6-cyano-2′-(trifluoromethyl)(1,1′-biphenyl)-3-yl)(1-methyl-1H-imidazol-5-yl)methoxy)methyl)nicotinonitrile dihydrochloride] | –
5 | 90 | Cn1cncc1C(OCc1ncc(C(F)(F)F)cc1Cl)c1ccc(C#N)c(-c2cccc3cccnc23)c1 (centres unmarked) [Example 246, 4-(((3-chloro-5-(trifluoromethyl)-2-pyridinyl)methoxy)(1-methyl-1H-imidazol-5-yl)methyl)-2-(8-quinolinyl)benzonitrile] | –
6 | 100 | Cn1cncc1CN(c1ccc(C#N)c(-c2cccc3ccccc23)c1)S(=O)(=O)c1ccccc1 [Example 267, N-(4-cyano-3-(1-naphthyl)phenyl)-N-((1-methyl-1H-imidazol-5-yl)methyl)benzenesulfonamide] | –
7 | 91 | Cc1ccccc1-c1cc(C(OCc2noc(C(C)(C)C)n2)c2cncn2C)ccc1C#N (centres unmarked) [Example 159, 5-(((5-(tert-butyl)-1,2,4-oxadiazol-3-yl)methoxy)(1-methyl-1H-imidazol-5-yl)methyl)-2′-methyl(1,1′-biphenyl)-2-carbonitrile hydrochloride] | –
8 | 88 | Cn1cncc1CN(Cc1ccc(C#N)cc1)C(=O)c1ccc(C#N)c(-c2cccc3cccnc23)c1 [Example 206, 4-cyano-N-(4-cyanobenzyl)-N-((1-methyl-1H-imidazol-5-yl)methyl)-3-(8-quinolinyl)benzamide] | –
9 | 100 | Cn1cncc1C(OCc1ccc(Br)cc1)c1ccc(C#N)c(-c2cccc3ccccc23)c1 (centres unmarked) [Example 263, 4-(((4-bromobenzyl)oxy)(1-methyl-1H-imidazol-5-yl)methyl)-2-(1-naphthyl)benzonitrile] | –
10 | 93 | Cc1ccccc1-c1cc(C(OCc2cnc(Cl)c(Cl)c2)c2cncn2C)ccc1C#N (centres unmarked) [Example 181, 5-(((5,6-dichloro-3-pyridinyl)methoxy)(1-methyl-1H-imidazol-5-yl)methyl)-2′-methyl(1,1′-biphenyl)-2-carbonitrile hydrochloride] | –
11 | – | COC(=O)c1cccc(CN(Cc2cncn2C)c2ccc(C#N)c(-c3cccc4ccccc34)c2)c1 [Example 271, methyl 3-((4-cyano((1-methyl-1H-imidazol-5-yl)methyl)-3-(1-naphthyl)anilino)methyl)benzoate] | 100
12 | 92 | Cn1cncc1C(OCc1ccc(C#N)cc1)c1ccc(C#N)c(-c2ccc(Cl)cc2Cl)c1 (centres unmarked) [Example 202, 2′,4′-dichloro-5-(((4-cyanobenzyl)oxy)(1-methyl-1H-imidazol-5-yl)methyl)(1,1′-biphenyl)-2-carbonitrile hydrochloride] | –
13 | 92 | Cc1ccccc1-c1cc(C(OCc2ccccc2C#N)c2cncn2C)ccc1C#N (centres unmarked) [Example 126, 5-(((2-cyanobenzyl)oxy)(1-methyl-1H-imidazol-5-yl)methyl)-2′-methyl(1,1′-biphenyl)-2-carbonitrile hydrochloride] | –
14 | 82 | Cn1cncc1C(OCc1ccc(C(=O)O)cc1)c1ccc(C#N)c(-c2cccc3cccnc23)c1 (centres unmarked) [Example 243, 4-(((4-cyano-3-(8-quinolinyl)phenyl)(1-methyl-1H-imidazol-5-yl)methoxy)methyl)benzoic acid dihydrochloride] | –
15 | 90 | Cc1ccccc1-c1cc(C(OCc2cccc(I)c2)c2cncn2C)ccc1C#N (centres unmarked) [Example 117, 5-(((3-iodobenzyl)oxy)(1-methyl-1H-imidazol-5-yl)methyl)-2′-methyl(1,1′-biphenyl)-2-carbonitrile hydrochloride] | –
16 | 85 | COc1ccc(C(C)=O)cc1COC(c1ccc(C#N)c(-c2ccccc2C)c1)c1cncn1C (centres unmarked) [Example 170, 5-(((5-acetyl-2-methoxybenzyl)oxy)(1-methyl-1H-imidazol-5-yl)methyl)-2′-methyl(1,1′-biphenyl)-2-carbonitrile hydrochloride] | –
17 | 12 | Cc1ccccc1-c1cc(C(OCc2ccccc2)c2ccsc2)ccc1C#N (centres unmarked) [Example 80, 5-((benzyloxy)(3-thienyl)methyl)-2′-methyl(1,1′-biphenyl)-2-carbonitrile] | –
18 | 100 | Cn1cncc1C(OCc1ccc(C(F)(F)F)cc1)c1ccc(C#N)c(-c2cccc3ccccc23)c1 (centres unmarked) [Example 65, 4-((1-methyl-1H-imidazol-5-yl)((4-(trifluoromethyl)benzyl)oxy)methyl)-2-(1-naphthyl)benzonitrile hydrochloride] | –
19 | 93 | Cc1ccccc1-c1cc(C(OCc2ccc(Br)cc2)c2cncn2C)ccc1C#N (centres unmarked) [Example 119, 5-(((4-bromobenzyl)oxy)(1-methyl-1H-imidazol-5-yl)methyl)-2′-methyl(1,1′-biphenyl)-2-carbonitrile hydrochloride] | –
20 | 100 | N#Cc1ccc(CN(Cc2ccc(C#N)c(-c3cccc4ccccc34)c2)Cc2cnc[nH]2)cc1 [Example 45, 4-(((4-cyanobenzyl)(1H-imidazol-5-ylmethyl)amino)methyl)-2-(1-naphthyl)benzonitrile dihydrochloride] | –
21 | 99 | Cc1ccccc1-c1cc(C(OCc2ccc(Cl)cc2[N+](=O)[O-])c2cncn2C)ccc1C#N (centres unmarked) [Example 164, 5-(((4-chloro-2-nitrobenzyl)oxy)(1-methyl-1H-imidazol-5-yl)methyl)-2′-methyl(1,1′-biphenyl)-2-carbonitrile hydrochloride] | –
22 | – | Cl.Cn1cncc1C(OCc1ccc([N+](=O)[O-])cc1)c1ccc(C#N)c(-c2cccc3ccccc23)c1 (centres unmarked) [Example 59, 4-((1-methyl-1H-imidazol-5-yl)((4-nitrobenzyl)oxy)methyl)-2-(1,1-naphthyl)benzonitrile hydrochloride] | 100
23 | 64 | Cn1cncc1C(OCc1ccccc1)c1ccc(C#N)c(-c2ccc3c4c(cccc24)CC3)c1 (centres unmarked) [Example 9, 4-((benzyloxy)(1-methyl-1H-imidazol-5-yl)methyl)-2-(1,2-dihydro-5-acenaphthylenyl)benzonitrile hydrochloride] | –
24 | 89 | Cc1ccccc1-c1cc(C(OCc2ccc(C(C)(C)C)cc2)c2cncn2C)ccc1C#N (centres unmarked) [Example 115, 5-(((4-(tert-butyl)benzyl)oxy)(1-methyl-1H-imidazol-5-yl)methyl)-2′-methyl(1,1′-biphenyl)-2-carbonitrile hydrochloride] | –
25 | 46 | N#Cc1ccc(CN(CCC2CCCCC2)C(=O)Cn2ccnc2)cc1-c1cccc2ccccc12 [Example 85, N-(4-cyano-3-(1-naphthyl)benzyl)-N-(2-cyclohexylethyl)-2-(1H-imidazol-1-yl)acetamide] | –
26 | – | Cl.Cl.Cn1cncc1C(NCc1ccc(S(C)(=O)=O)cc1)c1ccc(C#N)c(-c2cccc3ccccc23)c1 (centres unmarked) [Example 17] | 100
27 | 20 | Cc1ccccc1-c1cc(C(O)c2cncs2)ccc1C#N (centres unmarked) [Example 214, 5-(hydroxy(1,3-thiazol-5-yl)methyl)-2′-methyl(1,1′-biphenyl)-2-carbonitrile] | –
28 | 100 | Cn1cncc1C(NCc1ccc(C#N)c(Cl)c1)c1ccc(C#N)c(-c2cccc3ccccc23)c1 (centres unmarked) [Example 35, 4-(((3-chloro4-cyanobenzyl)amino)(1-methyl-1H-imidazol-5-yl)methyl)-2-(1-naphthyl)benzonitrile dihydrochloride] | –
29 | 27 | Cc1ccccc1-c1cc(NCc2cccnc2)ccc1C#N [Example 216, 2′-methyl-5-((3-pyridinylmethyl)amino)(1,1′-biphenyl)-2-carbonitrile] | –
30 | 98 | Cn1cncc1C(OCc1ccc(F)c(C(F)(F)F)c1)c1ccc(C#N)c(-c2cccc3cccnc23)c1 (centres unmarked) [Example 242, 4-(((4-fluoro-3-(trifluoromethyl)benzyl)oxy)(1-methyl-1H-imidazol-5-yl)methyl)-2-(8-quinolinyl)benzonitrile dihydrochloride] | –
31 | 94 | Cc1ccccc1-c1cc(C(OCc2csc(-c3ccc(Cl)cc3)n2)c2cncn2C)ccc1C#N (centres unmarked) [Example 162, 5-(((2-(4-chlorophenyl)-1,3-thiazol-4-yl)methoxy)(1-methyl-1H-imidazol-5-yl)methyl)-2′-methyl(1,1′-biphenyl)-2-carbonitrile hydrochloride] | –
32 | 50 | Cc1ccccc1-c1cc(NCc2cncn2C)ccc1C#N [Example 225, 2′-methyl-5-(((1-methyl-1H-imidazol-5-yl)methyl)amino)(1,1′-biphenyl)-2-carbonitrile] | –
33 | 99 | Cn1cncc1C(OCc1ccc(C#N)cc1)c1ccc(C#N)c(-c2cccc(Cl)c2Cl)c1 (centres unmarked) [Example 279, 2′,3′-dichloro-5-(((4-cyanobenzyl)oxy)(1-methyl-1H-imidazol-5-yl)methyl)(1,1′-biphenyl)-2-carbonitrile hydrochloride] | –

Row | Compound | inhibition at 1 µM [%] | % Inhibition at 10^−6M [%]
34 | Cn1cncc1C(NCc1ccc(C(=O)O)cc1)c1ccc(C#N)c(-c2cccc3ccccc23)c1 (centres unmarked) [Example 39, lithium 4-((((4-cyano-3-(1-naphthyl)phenyl)(1-methyl-1H-imidazol-5-yl)methyl)amino)methyl)benzoate] | 100 | –
35 | Cc1cccc(-c2cc(C(OCc3ccccc3)c3cncn3C)ccc2C#N)c1 (centres unmarked) [Example 91, 5-((benzyloxy)(1-methyl-1H-imidazol-5-yl)methyl)-3′-methyl(1,1′-biphenyl)-2-carbonitrile hydrochloride] | 94 | –
